The source of these data is publication PMC10257182, “Discovery of senolytics using machine learning” (Nature Communications, 2023).

Where a name gives a salt, the structure may show the parent alone. Read-outs that look alike come from different tables or passages of the source.

The assay deals with senescent IMR90 ER:RAS cells (4-OHT-induced). As to the kind of experiment: Nuclei count (Hoechst, high content imaging) senolytic assay, oncogene-induced senescence (OIS) model, senescent cells. The assay is classed as cell-based, human. The settings on record: for viability at 10 µM / viability at 4.677 µM / viability at 2.188 µM / viability at 1 µM / viability at 0.4677 µM / viability at 0.2188 µM / viability at 0.1 µM / viability at 0.04677 µM / viability at 0.02188 µM / viability at 0.01 µM: Homo sapiens. The method, boiled down: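 Cells seeded, left 24 h, then dosed across a 10-point […] series (10 μM down to 10 nM) with DMSO control. After 72 h, wells were fixed, permeabilised and stained with Hoechst. Nuclei were counted by high-content imaging in senescent and non-senescent IMR90 ER:RAS cultures.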

Setting [1] is: IMR-90, 72 h, Senescent, log (dose) [M] -5, 72 h, mean n=3 (Fig 3C), read-out: Mean % Cell Survival.
The mark [2] stands for this setting: IMR-90, 72 h, Senescent, log (dose) [M] -5.33, 72 h, mean n=3 (Fig 3C), read-out: Mean % Cell Survival.
Setting [3] is: IMR-90, 72 h, Senescent, log (dose) [M] -5.66, 72 h, mean n=3 (Fig 3C), read-out: Mean % Cell Survival.
[4] abbreviates: IMR-90, 72 h, Senescent, log (dose) [M] -6, 72 h, mean n=3 (Fig 3C), read-out: Mean % Cell Survival.
Where [5] appears, read: IMR-90, 72 h, Senescent, log (dose) [M] -6.33, 72 h, mean n=3 (Fig 3C), read-out: Mean % Cell Survival.
The mark [6] stands for this setting: IMR-90, 72 h, Senescent, log (dose) [M] -6.66, 72 h, mean n=3 (Fig 3C), read-out: Mean % Cell Survival.
The mark [7] stands for this setting: IMR-90, 72 h, Senescent, log (dose) [M] -7, 72 h, mean n=3 (Fig 3C), read-out: Mean % Cell Survival.
The mark [8] stands for this setting: IMR-90, 72 h, Senescent, log (dose) [M] -7.33, 72 h, mean n=3 (Fig 3C), read-out: Mean % Cell Survival.
The mark [9] stands for this setting: IMR-90, 72 h, Senescent, log (dose) [M] -7.66, 72 h, mean n=3 (Fig 3C), read-out: Mean % Cell Survival.
[10] abbreviates: IMR-90, 72 h, Senescent, log (dose) [M] -8, 72 h, mean n=3 (Fig 3C), read-out: Mean % Cell Survival.
Setting [11] is: IMR-90, Senescent cells, log (dose) [M] -5, individual replicates, SUP FIG 4C, read-out: % Cell Survival.
Setting [12] is: IMR-90, Senescent cells, log (dose) [M] -5.33, individual replicates, SUP FIG 4C, read-out: % Cell Survival.
Setting [13] is: IMR-90, Senescent cells, log (dose) [M] -6.66, individual replicates, SUP FIG 4C, read-out: % Cell Survival.
Setting [14] is: IMR-90, Senescent cells, log (dose) [M] -7, individual replicates, SUP FIG 4C, read-out: % Cell Survival.
Where [15] appears, read: IMR-90, Senescent cells, log (dose) [M] -7.33, individual replicates, SUP FIG 4C, read-out: % Cell Survival.
Setting [16] is: IMR-90, Senescent cells, log (dose) [M] -7.66, individual replicates, SUP FIG 4C, read-out: % Cell Survival.
Setting [17] is: IMR-90, Senescent cells, log (dose) [M] -8, individual replicates, SUP FIG 4C, read-out: % Cell Survival.
Setting [18] is: IMR-90, Senescent cells, log (dose) [M] -5.66, individual replicates, SUP FIG 4C, read-out: % Cell Survival.
The mark [19] stands for this setting: IMR-90, Senescent, log (dose) [M] -8, read-out: % Cell Survival.

As to `CO[C@H]1C[C@@H]2CC[C@@H](C)[C@@](O)(O2)C(=O)C(=O)N2CCCC[C@H]2C(=O)O[C@H]([C@H](C)C[C@@H]2CC[C@@H](O)[C@H](OC)C2)CC(=O)[C@H](C)/C=C(\C)[C@@H](O)[C@@H](OC)C(=O)[C@H](C)C[C@H](C)/C=C/C=C/C=C/1C` [Rapamycin, rapamycin, reference compound], the viability at 10 µM under setting [1] is 98.4% and the viability at 10 µM under setting [11] turned out to be 94.1%. In addition, the viability at 4.677 µM under setting [2] turned out to be 103% and the viability at 4.677 µM under setting [12] worked out at 113%. Besides, the viability at 2.188 µM under setting [3] was 114%. Moreover, the viability at 1 µM under setting [4] was 90.6%. Moreover, the viability at 0.4677 µM under setting [5] was 101%. The viability at 0.2188 µM under setting [6] amounted to 97.8% and the viability at 0.2188 µM under setting [13] is 104%. In addition, the viability at 0.1 µM runs as follows: under setting [7], 92.6%; under setting [14], 95.9%. Further, the viability at 0.04677 µM stood at 105% under setting [8] and 107% under setting [15]. In addition, the viability at 0.02188 µM is 93.9% under setting [9] and 102% under setting [16]. Besides, the viability at 0.01 µM runs as follows: under setting [10], 92%; under setting [17], 88.4%.

For the molecule `CO[C@H]1C[C@@H]2CC[C@@H](C)[C@@](O)(O2)C(=O)C(=O)N2CCCC[C@H]2C(=O)O[C@H]([C@H](C)C[C@@H]2CC[C@@H](OP(C)(C)=O)[C@H](OC)C2)CC(=O)[C@H](C)/C=C(\C)[C@@H](O)[C@@H](OC)C(=O)[C@H](C)C[C@H](C)/C=C/C=C/C=C/1C` [Ridaforolimus, ridaforolimus, reference compound], the viability at 10 µM under setting [1] was found to be 122%. In addition, under setting [2], the viability at 4.677 µM was 144%. Further, the viability at 2.188 µM by setting is: under setting [3], 164%; under setting [18], 166%. Also, the viability at 1 µM under setting [4] is 156%. The viability at 0.4677 µM under setting [5] amounted to 160%. Further, the viability at 0.2188 µM under setting [6] was 156%. Further, under setting [7], the viability at 0.1 µM turned out to be 126%. Besides, the viability at 0.04677 µM under setting [8] is 128%. For the same molecule, the viability at 0.02188 µM under setting [9] was 131%; the viability at 0.02188 µM under setting [16] is 129%; the viability at 0.02188 µM (IMR-90, Senescent, log (dose) [M] -7.66, read-out: % Cell Survival) came to 81.7%. Besides, the viability at 0.01 µM by setting is: under setting [10], 105%; under setting [19], 78.7%.

In the case of `O=c1cc(-c2ccc(O)cc2)oc2cc(O)c(O)c(O)c12` [Scutellarein, scutellarein], the viability at 10 µM under setting [1] was found to be 124%. For the same molecule, the viability at 4.677 µM is, setting by setting: under setting [2], 124%; under setting [12], 129%. Besides, the viability at 2.188 µM under setting [3] amounted to 132%. Further, the viability at 1 µM under setting [4] is 124%. Also, the viability at 0.4677 µM under setting [5] came out at 137%. Also, the viability at 0.2188 µM runs as follows: under setting [6], 132%; (IMR-90, Senescent, log (dose) [M] -6.66, read-out: % Cell Survival) 97.8%. The viability at 0.1 µM under setting [7] turned out to be 115%. For the same molecule, the viability at 0.04677 µM by setting is: under setting [8], 122%; (IMR-90, Senescent, log (dose) [M] -7.33, read-out: % Cell Survival) 91.2%. Under setting [9], the viability at 0.02188 µM came to 106%. In addition, the viability at 0.01 µM under setting [10] is 100% and the viability at 0.01 µM under setting [19] stood at 100%.

For the molecule `C[C@H](CCC(=O)NCCS(=O)(=O)O)[C@H]1CC[C@H]2[C@@H]3[C@H](O)C[C@@H]4C[C@H](O)CC[C@]4(C)[C@H]3C[C@H](O)[C@]12C` [Taurocholic acid sodium, taurocholic acid sodium salt hydrate], the viability at 10 µM (IMR-90, 72 h, read-out: Mean % Cell Survival, Senescent, log (dose) [M] -5, 72 h, mean n=3 (Fig 3C)) was found to be 110%. The viability at 4.677 µM came out at 132% (IMR-90, 72 h, read-out: Mean % Cell Survival, Senescent, log (dose) [M] -5.33, 72 h, mean n=3 (Fig 3C)) and 118% (IMR-90, read-out: % Cell Survival, Senescent, log (dose) [M] -5.33). For the same molecule, where the note is “IMR-90, 72 h, read-out: Mean % Cell Survival, Senescent, log (dose) [M] -5.66, 72 h, mean n=3 (Fig 3C)”, the viability at 2.188 µM stood at 115%. The viability at 1 µM (IMR-90, 72 h, read-out: Mean % Cell Survival, Senescent, log (dose) [M] -6, 72 h, mean n=3 (Fig 3C)) amounted to 123%. Also, the viability at 0.4677 µM (IMR-90, 72 h, read-out: Mean % Cell Survival, Senescent, log (dose) [M] -6.33, 72 h, mean n=3 (Fig 3C)) stood at 106%. Besides, the viability at 0.2188 µM (IMR-90, 72 h, read-out: Mean % Cell Survival, Senescent, log (dose) [M] -6.66, 72 h, mean n=3 (Fig 3C)) came out at 99.8% and the viability at 0.2188 µM (IMR-90, read-out: % Cell Survival, Senescent cells, log (dose) [M] -6.66, individual replicates, SUP FIG 4C) amounted to 105%. Further, the viability at 0.1 µM runs as follows: (IMR-90, 72 h, read-out: Mean % Cell Survival, Senescent, log (dose) [M] -7, 72 h, mean n=3 (Fig 3C)) 96.6%; (IMR-90, read-out: % Cell Survival, Senescent cells, log (dose) [M] -7, individual replicates, SUP FIG 4C) 101%. Further, where the note is “IMR-90, 72 h, read-out: Mean % Cell Survival, Senescent, log (dose) [M] -7.33, 72 h, mean n=3 (Fig 3C)”, the viability at 0.04677 µM is 108%. Also, the viability at 0.02188 µM (IMR-90, 72 h, read-out: Mean % Cell Survival, Senescent, log (dose) [M] -7.66, 72 h, mean n=3 (Fig 3C)) stood at 112%. The viability at 0.01 µM (IMR-90, 72 h, read-out: Mean % Cell Survival, Senescent, log (dose) [M] -8, 72 h, mean n=3 (Fig 3C)) was found to be 107%. Besides, the “senolytic activity (in words)” value (experimental screen, OIS IMR90 ER:RAS) was “inactive”.

On to `COC[C@H]1C[C@@H](c2nc(-c3ccc4c(c3)COc3cc5c(ccc6nc([C@@H]7CC[C@H](C)N7C(=O)[C@@H](NC(=O)OC)C(C)C)[nH]c65)cc3-4)c[nH]2)N(C(=O)[C@H](NC(=O)OC)c2ccccc2)C1` [Velpatasvir, velpatasvir, reference compound], for which the viability at 10 µM is, setting by setting: under setting [1], 97.8%; under setting [11], 100%. For the same molecule, the viability at 4.677 µM under setting [2] stood at 116%. For the same molecule, the viability at 2.188 µM came to 102% under setting [3] and 111% under setting [18]. In addition, the viability at 1 µM is 112% under setting [4] and 108% (IMR-90, Senescent cells, log (dose) [M] -6, individual replicates, SUP FIG 4C, read-out: % Cell Survival). Under setting [5], the viability at 0.4677 µM is 78.2%. Further, the viability at 0.2188 µM turned out to be 83.6% under setting [6] and 90.3% under setting [13]. Also, the viability at 0.1 µM worked out at 88.6% under setting [7] and 89% under setting [14]. Moreover, the viability at 0.04677 µM is, setting by setting: under setting [8], 91.5%; under setting [15], 85.1%. Also, the viability at 0.02188 µM runs as follows: under setting [9], 108%; under setting [16], 103%. Besides, the viability at 0.01 µM under setting [10] is 100% and the viability at 0.01 µM under setting [17] was 94.1%.
